Like-named read-outs stand apart in the source and are kept apart here.
Legend:
[1] = target: T1, Full-length (FL)-PRMT5-MEP50 enzyme complex (Homo sapiens, UniProt O14744); assay: PRMT5-MEP50 Enzyme Methylation Assay (Version B); type: biochemical
T1 construct: Full-length (FL)-PRMT5-MEP50 enzyme complex (recombinant proteins from baculovirus-transfected Sf21 cells: FL-PRMT5; MW=73837 kDa and FL-MEP50; MW=38614); made in house; host or cells: baculovirus-transfected Sf21 cells
Method: PRMT5-MEP50 Enzyme Methylation Assay (Version B)
PRMT5/MEP50 biochemical assay is a direct measurement of the methylation activity of the enzyme complex on a short peptide substrate derived from the N-terminus of H4 histone. Methylation experiment was performed with recombinant protein. The assessment of inhibitory effect (IC50) of small molecules was measured by the effectiveness of the compounds to inhibit this reaction.
In this assay, the potency (IC50) of each compound was determined from a twenty-point (1:2 serial dilution; top compound concentration of 100000 nM) titration curve using the following outlined procedure. To each well of a white ProxiPlus 384 well-plate, 100 nL of compound (1% DMSO in final assay volume of 10 μL) was dispensed, followed by the addition of 8 μL of 1× assay buffer (50 mM Bicine pH 8.0, 1 mM DTT, 0.004% Tween20, 0.01% BSA) containing 0.5 nM of Full-length (FL)-PRMT5-MEP50 enzyme complex (recombinant proteins from baculovirus-transfected Sf21 cells: FL-PRMT5; MW=[…] and FL-MEP50; MW=38614). Plates were sealed and placed in a 37° C. humidified chamber for 30 minutes pre-incubation with compounds. Subsequently, each reaction was initiated by the addition of 2 μL 1× assay buffer containing 75 nM biotinylated H4R3 (Me1) peptide, and 15 μM S-(5′-Adenosyl)-L-Methionine Chloride (SAM). The final reaction in each well of 10 μL consists of 0.5 nM PRMT5-MEP50, 75 nM biotinylated-peptide, and 15 μM SAM. Methylation reactions were allowed to proceed for 150 minutes in a sealed plate at 37° C. Reactions were immediately quenched by the addition of 1 μL of 10% formic acid. Plates were then frozen and shipped to SAMDI™ Tech Inc. to determine the percent conversion from […]. EC50 values were determined by non-linear regression according to models for either sigmoidal (4 parameters) or biphasic (7 parameters) dose-response curves.

[2] = tested on: symmetric dimethylation of arginine (SDMA) of PRMT5 substrates in MCF-7 cells; assay: PRMT5 Cell Target Engagement (TE) Assay; type: cell-based; conditions: 3 days treatment, SDMA high content imaging
Summary of the method: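 Readout is single-cell nuclear symmetric-dimethylarginine immunofluorescence (Alexa488), normalized to DMSO-treated cells. Compounds were applied to MCF-7 cells for 3 days at 37 °C, top concentration 10000 nM in 1:3 steps over ten points; curves fitted with 4-parameter robust fit.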

[3] = second value of 7 parameter biphasic fit, read-out: Enzyme Methylation Assay Version B (EC50 2)
[4] = single EC50 = 4 parameter single site sigmoidal fit, EC50 1 = first value of 7 parameter biphasic fit, read-out: Enzyme Methylation Assay Version B (EC50 or EC50 1)

T1 sequence (O14744 whole entry): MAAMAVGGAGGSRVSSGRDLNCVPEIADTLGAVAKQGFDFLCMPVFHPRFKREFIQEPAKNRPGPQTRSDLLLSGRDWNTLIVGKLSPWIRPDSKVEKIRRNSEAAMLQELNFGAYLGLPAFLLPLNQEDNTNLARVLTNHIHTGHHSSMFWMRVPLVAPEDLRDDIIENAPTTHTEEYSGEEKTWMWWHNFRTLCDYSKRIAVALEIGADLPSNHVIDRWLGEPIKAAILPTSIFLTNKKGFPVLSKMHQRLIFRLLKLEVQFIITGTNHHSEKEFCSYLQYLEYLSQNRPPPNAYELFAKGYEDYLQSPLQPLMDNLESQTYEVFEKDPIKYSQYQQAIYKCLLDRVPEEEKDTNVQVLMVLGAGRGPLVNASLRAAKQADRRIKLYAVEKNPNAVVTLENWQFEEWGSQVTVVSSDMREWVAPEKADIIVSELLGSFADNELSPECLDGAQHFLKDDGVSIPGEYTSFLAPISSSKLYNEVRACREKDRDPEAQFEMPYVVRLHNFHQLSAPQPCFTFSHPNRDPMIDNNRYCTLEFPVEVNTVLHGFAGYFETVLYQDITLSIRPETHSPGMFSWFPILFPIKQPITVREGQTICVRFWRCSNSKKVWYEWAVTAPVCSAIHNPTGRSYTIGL
T1 sequence (Q9BQA1 whole entry partner): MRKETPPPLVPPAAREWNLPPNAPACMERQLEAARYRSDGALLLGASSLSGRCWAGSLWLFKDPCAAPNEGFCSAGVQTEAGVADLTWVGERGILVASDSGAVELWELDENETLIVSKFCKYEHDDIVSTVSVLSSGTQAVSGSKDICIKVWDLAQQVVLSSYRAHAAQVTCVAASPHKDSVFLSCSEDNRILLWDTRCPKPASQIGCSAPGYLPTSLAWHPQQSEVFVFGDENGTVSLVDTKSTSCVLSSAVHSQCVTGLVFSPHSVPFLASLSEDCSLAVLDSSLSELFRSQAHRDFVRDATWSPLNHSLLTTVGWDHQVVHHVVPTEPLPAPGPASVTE

| EC50 [1, 3] [nM] | EC50 [1, 4] [nM] | EC50 ([2]; Homo sapiens, MCF7, 72 h) [nM] | SMILES | EC50 [2] [nM] |
| --- | --- | --- | --- | --- |
| 8710 | 3.31 | 53 | O=C(c1ccc(-c2ncnn2C2CC2)cc1Cl)N1CC[C@]2(Cc3ccccc3CN2)[C@H](O)C1 [Example 110, (2-chloro-4-(1-cyclopropyl-1H-1,2,4-triazol-5-yl)phenyl)((3R,3′R)-3′-hydroxy-1,4-dihydro-2H-spiro[isoquinoline-3,4′-piperidin]-1′-yl)methanone] |  |
| 15000 | 15.1 | 7550 | CCOc1nc(Cl)ccc1C(=O)N1CCC2(CC1)Cc1ccccc1CN2 [Example 114, (6-chloro-2-ethoxypyridin-3-yl)(1,4-dihydro-1′H,2H-spiro[isoquinoline-3,4′-piperidin]-1′-yl)methanone] |  |
| 55000 | 86.3 | ≥ 10000 | CCOc1nc(C(F)(F)F)ccc1C(=O)N1CCC2(CC1)Cc1ccccc1CN2 [Example 115, (1,4-dihydro-1′H,2H-spiro[isoquinoline-3,4′-piperidin]-1′-yl)[2-ethoxy-6-(trifluoromethyl)pyridin-3-yl]methanone] |  |
| ≥ 100000 | 807 | ≥ 10000 | O=C(c1ccc(C(F)(F)F)nc1Cl)N1CCC2(CC1)Cc1ccccc1CN2 [Example 116, [2-chloro-6-(trifluoromethyl)pyridin-3-yl](1,4-dihydro-1′H,2H-spiro[isoquinoline-3,4′-piperidin]-1′-yl)methanone] |  |
| ≥ 100000 | 690 | ≥ 10000 | Cn1ncnc1-c1ccc(C(=O)N2CCC3(CC2)Cc2ccccc2CN3)cc1 [Example 117, (1,4-dihydro-1′H,2H-spiro[isoquinoline-3,4′-piperidin]-1′-yl)[4-(1-methyl-1H-1,2,4-triazol-5-yl)phenyl]methanone] |  |
| ≥ 100000 | 510 | ≥ 10000 | O=C(c1ccc(-c2nnc(C3CC3)o2)cc1)N1CCC2(CC1)Cc1ccccc1CN2 [Example 118, [4-(5-cyclopropyl-1,3,4-oxadiazol-2-yl)phenyl](1,4-dihydro-1′H,2H-spiro[isoquinoline-3,4′-piperidin]-1′-yl)methanone] |  |

More lines, now with the values behind:

| SMILES | EC50 [1, 3] [nM] | EC50 [1, 4] [nM] | EC50 ([2]; Homo sapiens, MCF7, 72 h) [nM] | EC50 [2] [nM] |
| --- | --- | --- | --- | --- |
| CC(=O)N1CCC(Nc2cc(C(=O)N3CCC4(Cc5ccccc5CN4)C(O)C3)ncn2)CC1 (single isomer, unassigned) [Example 93, A diastereomer of 1-[4-({6-[(3′-hydroxy-1,4-dihydro-1′H,2H-spiro[isoquinoline-3,4′-piperidin]-1′-yl)carbonyl]-4-pyrimidinyl}amino)-1-piperidinyl]ethanone] | 1070 | 3.11 |  | 27.3 |
| CC(=O)N1CCC(Nc2cc(C(=O)N3CC[C@]4(Cc5ccccc5CN4)[C@H](O)C3)ccn2)C(F)(F)C1 (single isomer, unassigned) [Example 96, 1—((S or R)-3,3-difluoro-4-((4-((3R,3′R)-3′-hydroxy-1,4-dihydro-2H-spiro[isoquinoline-3,4′-piperidine]-1′-carbonyl)pyridin-2-yl)amino)piperidin-1-yl)ethan-1-one] | 34300 | 19.7 |  | 767 |
| CC(=O)N1CCC(Nc2cc(C(=O)N3CC[C@]4(Cc5ccccc5CN4)[C@H](O)C3)ccn2)C(F)(F)C1 (single isomer, unassigned) [Example 97, 1—((S or R)-3,3-difluoro-4-((4-((3R,3′R)-3′-hydroxy-1,4-dihydro-2H-spiro[isoquinoline-3,4′-piperidine]-1′-carbonyl)pyridin-2-yl)amino)piperidin-1-yl)ethan-1-one] | 7410 | 4.54 |  | 216 |
| O=C(c1ccc(C(=O)N2C3CCC2COC3)cc1)N1CCC2(Cc3ccccc3CN2)C(O)C1 (single isomer, unassigned) [Example 149, (3′-hydroxy-1,4-dihydro-1′H,2H-spiro[isoquinoline-3,4′-piperidin]-1′ -yl)[4-(3-oxa-8-azabicyclo[3.2.1]oct-8-ylcarbonyl)phenyl]methanone] | ≥ 100000 | 298 |  | 9840 |
| O=C(c1ccc(C(=O)N2C3CCC2COC3)cc1)N1CCC2(Cc3ccccc3CN2)C(O)C1 (single isomer, unassigned) [Example 150, (3′-hydroxy-1,4-dihydro-1′H,2H-spiro[isoquinoline-3,4′-piperidin]-1′-yl)[4-(3-oxa-8-azabicyclo[3.2.1]oct-8-ylcarbonyl)phenyl]methanone] | 1840 | 5.61 |  | 246 |
| O=C(c1ccc(C(=O)N2C3CCC2COC3)cc1)N1CCC2(Cc3ccccc3CN2)C(O)C1 (single isomer, unassigned) [Example 151, (3′-hydroxy-1,4-dihydro-1′H,2H-spiro[isoquinoline-3,4′-piperidin]-1′-yl)[4-(3-oxa-8-azabicyclo[3.2.1]oct-8-ylcarbonyl)phenyl]methanone] |  | 882 |  | 4180 |
| O=C(c1ccc(C(=O)N2C3CCC2COC3)cc1)N1CCC2(Cc3ccccc3CN2)C(O)C1 (single isomer, unassigned) [Example 152, (3′-hydroxy-1,4-dihydro-1′H,2H-spiro[isoquinoline-3,4′-piperidin]-1′-yl)[4-(3-oxa-8-azabicyclo[3.2.1]oct-8-ylcarbonyl)phenyl]methanone] | 335 | 1.2 |  | 27.7 |
| CC(=O)N1CCC(Nc2cc(C(=O)N3CC[C@]4(Cc5ccccc5CN4)[C@H](O)C3)c(Cl)cn2)CC1 [Example 4, 11-(4-((5-chloro-4-((3R,3’R)-3′-hydroxy-1,4-dihydro-2H-spiro[isoquinoline-3,4′-piperidine]-1′-carbonyl)pyridin-2-yl)amino)piperidin-1-yl)ethan-1-one] | 1530 | 2.63 | 55.9 |  |
| CC(=O)N1CCC(Nc2cc(C(=O)N3CC[C@]4(Cc5ccccc5CN4)[C@H](O)C3)c(F)cn2)CC1 [Example 5, 1-(4-((5-fluoro-4-((3R,3’R)-3′-hydroxy-1,4-dihydro-2H-spiro[isoquinoline-3,4′-piperidine]-1′-carbonyl)pyridin-2-yl)amino)piperidin-1-yl)ethan-1-one] | 1110 | 5.18 | 38.6 |  |
| CCOc1cc(C(=O)N2C3CCC2COC3)ccc1C(=O)N1CCC2(CC1)Cc1ccc(Cl)cc1CN2 [Example 52, [4-(7-chloro-1,4-dihydro-1H,2H-spiro[isoquinoline-3,4′-piperidine]-1′-carbonyl)-3-ethoxyphenyl](3-oxa-8-azabicyclo[3.2.l]octan-8-yl)methanone] | 2250 | 6.71 | 87.7 |  |
| CC(=O)N1CCC(Nc2cc(C(=O)N3CCC4(CC3)Cc3ccc(Cl)cc3CN4)ncn2)CC1 [Example 53, 1-(4-{[6-(7-chloro-1,4-dihydro-1′H,2H-spiro[isoquinoline-3,4′-piperidine]-1′-carbonyl)pyrimidin-4-yl]amino}piperidin-1-yl)ethan-1-one] | 5550 | 6.21 | 488 |  |
| CCOc1cc(C(=O)N2C3CCC2COC3)ccc1C(=O)N1CCC2(CC1)Cc1ccccc1CN2 [Example 172, (4-(3-oxa-8-azabicyclo[3.2.1]octane-8-carbonyl)-2-ethoxyphenyl)(1,4-dihydro-2H-spiro[isoquinoline-3,4′-piperidin]-1′-yl)methanone] | 1940 | 5.42 | 88.9 |  |

From patent US12441730B2, “PRMT5 inhibitors” (Merck Sharp & Dohme LLC, priority 2019, dated 2025)
